# Measured values reported in ChEMBL document CHEMBL1201862, “PubChem BioAssay data set” (2004).
#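 Growth conditions: 96-well plates. Treatment: test compound, 48 hours, 5 concentrations. Analysis: linear interpolation between bracketing concentrations; unreached endpoints set to highest concentration. GI50: concentration for 50% inhibition of growth.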 Activity calls are given as the source filed them. Rule as the data show it: active = GI50 up to about 1.1 µM and inactive = higher.
# Assays:
# Assay in all cases: NCI-60 cell line screen, 48 h
# SK-MEL-28 = test system: SK-MEL-28
# K562 = test system: K562
# HL-60 = test system: HL-60
# NCI-H226 = test system: NCI-H226
# OVCAR-3 = test system: OVCAR-3
# HCC 2998 = test system: HCC 2998
# MDA-MB-231 = test system: MDA-MB-231
# SW-620 = test system: SW-620
# SNB-19 = test system: SNB-19
# CAKI-1 = test system: CAKI-1
# 786-0 = test system: 786-0
# SF-295 = test system: SF-295
# EKVX = test system: EKVX
# MDA-N = test system: MDA-N
# A498 = test system: A498
# SF-268 = test system: SF-268
# SK-MEL-2 = test system: SK-MEL-2
# TK-10 = test system: TK-10
# SN12C = test system: SN12C
# MDA-MB-435 = test system: MDA-MB-435
SMILES,GI50 (SK-MEL-28),GI50 (K562),GI50 (HL-60),GI50 (NCI-H226),GI50 (OVCAR-3),GI50 (HCC 2998),GI50 (MDA-MB-231),GI50 (SW-620),GI50 (SNB-19),GI50 (CAKI-1),GI50 (786-0),GI50 (SF-295),GI50 (EKVX),GI50 (MDA-N),GI50 (A498),GI50 (SF-268),GI50 (SK-MEL-2),GI50 (TK-10),GI50 (SN12C),GI50 (MDA-MB-435)
CC(C)(CO[C@H]1C[C@H]2CC[C@@]1(C)C2(C)C)[N+](=O)[O-],18.5 µM (inactive),13.9 µM (inactive),0.0363 µM (active),16.1 µM (inactive),22.8 µM (inactive),2.07 µM (inactive),18.1 µM (inactive),22.2 µM (inactive),14.1 µM (inactive),20 µM (inactive),14.3 µM (inactive),18.6 µM (inactive),16.7 µM (inactive),15.6 µM (inactive),22.7 µM (inactive),33 µM (inactive),16.6 µM (inactive),17.1 µM (inactive),27.4 µM (inactive),18.8 µM (inactive)
Clc1ccccc1C(Nc1ncccn1)Nc1ncccn1,> 100 µM (inactive),> 100 µM (inactive),> 100 µM (inactive),> 100 µM (inactive),> 100 µM (inactive),> 100 µM (inactive),> 100 µM (inactive),> 100 µM (inactive),> 100 µM (inactive),> 100 µM (inactive),> 100 µM (inactive),> 100 µM (inactive),> 100 µM (inactive),> 100 µM (inactive),> 100 µM (inactive),> 100 µM (inactive),> 100 µM (inactive),> 100 µM (inactive),> 100 µM (inactive),76.6 µM (inactive)
COc1ccc(CCN2C(=O)C=CC2=O)cc1OC,16.4 µM (inactive),2.59 µM (inactive),8.39 µM (inactive),5.62 µM (inactive),18 µM (inactive),17.4 µM (inactive),14.1 µM (inactive),2.28 µM (inactive),19.5 µM (inactive),13.3 µM (inactive),3.07 µM (inactive),17.7 µM (inactive),19.2 µM (inactive),17.8 µM (inactive),16.7 µM (inactive),22.1 µM (inactive),5.2 µM (inactive),15.2 µM (inactive),17.5 µM (inactive),17.5 µM (inactive)
COC(=O)C1=C(OC(=O)/C=C/c2ccc(Cl)cc2)C(C(=O)OC)[C@]2(O)[C@@H](C(=O)OC)[C@H]1C[C@@H](c1ccccc1)[C@@H]2C(=O)OC (stereo not given in full),17.3 µM (inactive),4.54 µM (inactive),3.81 µM (inactive),4.12 µM (inactive),7.5 µM (inactive),7.83 µM (inactive),12.4 µM (inactive),3.97 µM (inactive),6.65 µM (inactive),11.1 µM (inactive),4.92 µM (inactive),9.23 µM (inactive),3.85 µM (inactive),3.58 µM (inactive),6.04 µM (inactive),4.66 µM (inactive),6.27 µM (inactive),> 30.3 µM (inactive),7.36 µM (inactive),3.82 µM (inactive)
O=c1cnn(C2OC(CO)C(O)C(F)C2O)c(=O)[nH]1 (stereo not given),> 100 µM (inactive),> 100 µM (inactive),> 100 µM (inactive),> 100 µM (inactive),> 100 µM (inactive),> 100 µM (inactive),> 100 µM (inactive),> 100 µM (inactive),> 100 µM (inactive),> 100 µM (inactive),> 100 µM (inactive),> 100 µM (inactive),> 100 µM (inactive),> 100 µM (inactive),40.8 µM (inactive),> 100 µM (inactive),> 100 µM (inactive),> 100 µM (inactive),> 100 µM (inactive),> 100 µM (inactive)
C[N+]1(C(CO)Cc2c[nH]c3ccccc23)Cc2ccccc2C1 (stereo not given),31.7 µM (inactive),89.7 µM (inactive),> 100 µM (inactive),> 100 µM (inactive),> 100 µM (inactive),> 100 µM (inactive),> 100 µM (inactive),> 100 µM (inactive),> 100 µM (inactive),> 100 µM (inactive),> 100 µM (inactive),> 100 µM (inactive),62.4 µM (inactive),> 100 µM (inactive),66.5 µM (inactive),> 100 µM (inactive),> 100 µM (inactive),> 100 µM (inactive),> 100 µM (inactive),> 100 µM (inactive)
O=C1/C(=C/c2ccccc2)CCc2ccc([N+](=O)[O-])cc21,> 81.8 µM (inactive),15.9 µM (inactive),1.86 µM (inactive),> 100 µM (inactive),> 100 µM (inactive),> 88.3 µM (inactive),69.3 µM (inactive),> 70 µM (inactive),27.2 µM (inactive),> 100 µM (inactive),28.4 µM (inactive),33 µM (inactive),> 91.8 µM (inactive),35 µM (inactive),> 78.7 µM (inactive),30.7 µM (inactive),13.6 µM (inactive),60.1 µM (inactive),> 75.9 µM (inactive),40.8 µM (inactive)
O=C(N/N=C(COc1cccc(Cl)c1)\N=C\c1ccncc1)c1ccncc1,> 100 µM (inactive),> 100 µM (inactive),> 100 µM (inactive),> 100 µM (inactive),> 100 µM (inactive),> 100 µM (inactive),> 100 µM (inactive),> 100 µM (inactive),> 100 µM (inactive),> 100 µM (inactive),> 100 µM (inactive),> 100 µM (inactive),> 100 µM (inactive),> 100 µM (inactive),68.9 µM (inactive),> 100 µM (inactive),> 100 µM (inactive),> 100 µM (inactive),> 100 µM (inactive),75.3 µM (inactive)
Cc1nc(Nc2ccc(Cl)cc2Cl)sc1C(=O)Nc1ccccc1,> 100 µM (inactive),24 µM (inactive),> 10 µM (inactive),< 0.01 µM (active),97.1 µM (inactive),72.1 µM (inactive),56.5 µM (inactive),> 100 µM (inactive),> 100 µM (inactive),49.8 µM (inactive),53.6 µM (inactive),29.9 µM (inactive),84.7 µM (inactive),81.3 µM (inactive),> 100 µM (inactive),77.6 µM (inactive),39.8 µM (inactive),57.4 µM (inactive),> 100 µM (inactive),42.2 µM (inactive)
O=S(=O)(O)C(CO)c1ccccc1.O=S(=O)(O)Cc1ccccc1 (stereo not given),> 100 µM (inactive),> 100 µM (inactive),5.35 µM (inactive),> 100 µM (inactive),> 100 µM (inactive),> 100 µM (inactive),> 100 µM (inactive),> 100 µM (inactive),> 100 µM (inactive),> 100 µM (inactive),> 100 µM (inactive),> 100 µM (inactive),> 100 µM (inactive),> 100 µM (inactive),> 100 µM (inactive),> 100 µM (inactive),> 100 µM (inactive),> 100 µM (inactive),> 100 µM (inactive),> 100 µM (inactive)
CC1CC(C(=O)OC2OC(COC3OC(CO)C(OC4OC(C)C(O)C(O)C4O)C(O)C3O)C(O)C(O)C2O)C2CCC3(C)C(=CCC4(C)C3CCC3C(C)(CO)C(O)C(O)CC34C)C2C1C (stereo not given),17 µM (inactive),34.3 µM (inactive),21.6 µM (inactive),32.5 µM (inactive),23.3 µM (inactive),21.8 µM (inactive),17.9 µM (inactive),30.1 µM (inactive),17.4 µM (inactive),> 100 µM (inactive),21 µM (inactive),28.8 µM (inactive),> 10 µM (inactive),19.5 µM (inactive),> 10 µM (inactive),19 µM (inactive),18.9 µM (inactive),> 100 µM (inactive),20.7 µM (inactive),18.6 µM (inactive)
O=S1(=O)N=C(SCc2c[nH]c3ccccc23)N(c2ccccc2)c2ccncc21,> 100 µM (inactive),> 100 µM (inactive),> 100 µM (inactive),97.7 µM (inactive),> 100 µM (inactive),> 100 µM (inactive),> 100 µM (inactive),> 100 µM (inactive),> 100 µM (inactive),67.5 µM (inactive),25.1 µM (inactive),> 100 µM (inactive),> 100 µM (inactive),> 100 µM (inactive),27 µM (inactive),50.9 µM (inactive),> 100 µM (inactive),35.6 µM (inactive),74.6 µM (inactive),> 100 µM (inactive)
COc1cccc2c(NNc3ccc(Cl)cc3)c3ccc([N+](=O)[O-])cc3nc12,39.7 µM (inactive),11.7 µM (inactive),5.92 µM (inactive),13.9 µM (inactive),12.5 µM (inactive),13.8 µM (inactive),12.7 µM (inactive),13.8 µM (inactive),14.8 µM (inactive),2.28 µM (inactive),8.97 µM (inactive),16.2 µM (inactive),12.5 µM (inactive),36.4 µM (inactive),12.9 µM (inactive),12.7 µM (inactive),13 µM (inactive),10.3 µM (inactive),20.8 µM (inactive),29.7 µM (inactive)
